{"source": "patent US9475841B2", "about": "“Melanoma antigen peptide and uses thereof” (INSERM (INSTITUT NATIONAL DE LA SANTE ET DE LA RECHERCHE …, priority 2012, dated 2016)", "key": {"[1]": {"test_system": "MELOE-1 specific CD4+ T cells", "assay": "MELOE-1 CD4+ T cell responses in PBMC from healthy donors: restimulation of microcultures with overlapping peptides, CD4/TNF-α staining", "assay_type": "cell-based, human", "conditions": "for Microcultures containing MELOE-1 specific CD4+ T cells (TNF-α production): positive/tested microcultures", "description": "PBMC from healthy donors were stimulated with 10 μM of MELOE-1. After 14 days, the presence of CD4 T cells specific for the different regions of MELOE-1 was assessed by restimulating cells with MELOE-12-21, MELOE-111-30, MELOE-118-37 and MELOE-126-46 peptides, followed by CD4/TNF-α double staining and flow cytometry analysis. Between brackets is indicated the mean % of TNF-α producing CD4 T cells, in positive microcultures. NA: not available.\n(§1) PBMC from healthy donors or melanoma patients (2·10^5 cells/well) were cultured for 14 days with 10 μM of MELOE-1 whole antigen (46 amino acids) in RPMI medium supplemented with 8% HS, 50 IU/ml of rIL-2 (Chiron, France) and L-Glutamin, in 96-well multiplates. Microcultures were then restimulated individually with each overlapping peptide (MELOE-12-21, MELOE-111-30, MELOE-118-37, MELOE-12646 or MELOE-122-46 for melanoma patients) in the presence of 10 μg/mL brefeldin A for 5 hours and the percentage of CD4^+ specific T cells was assessed by TNF-α, IFN-γ or IL-4 intracellular staining. A negative control without peptide was included in all experiments.\nOur purpose was to look for the existence of class II helper epitopes all along MELOE-1 sequence (SEQ ID NO:20), in order to document the immunogenicity of the different regions of this melanoma antigen. We stimulated 2·10^7 PBMC from seven healthy donors with MELOE-1 whole antigen and tested, after a 14-day culture period the presence of CD4 T cells specific for each region of the protein. Microcultures were screened for TNFα production by CD4+ T cells, after restimulation with four MELOE-1 derived overlapping peptides (Table I), in an autopresentation assay. […] On the contrary, the central region 18-37, containing an already described DR11-restricted epitope (24-37) located just at the end of this 20-mer peptide (Rogel et al., 2011), induced specific responses in microcultures deriving from only 2/7 donors (HD9 and HD17, both expressing the DR11 element). In these two donors, we detected 6 and 7% of positive microcultures, containing between 0.6 to 3.7% of TNFα producing CD4 T cells."}, "[2]": {"test_system": "MELOE-1 specific CD4 T cells", "assay": "MELOE-1 CD4+ T cell responses in PBMC from melanoma patients: restimulation with peptides, CD4/IFN-γ (Th1) and CD4/IL4 (Th2) staining", "assay_type": "cell-based, human", "conditions": "for mean % of cytokine producing CD4 T cells, in positive microcultures (IFN-γ): Th1; for Th1 responses (IFN-γ positive microcultures) / Th2 responses (IL4 positive microcultures): positive/tested microcultures; for mean % of cytokine producing CD4 T cells, in positive microcultures (IL4): Th2", "description": "PBMC from melanoma patients were stimulated with 10 μM of MELOE-1. After 14 days, the presence of CD4 T cells specific for the different regions of MELOE-1 was assessed by restimulating cells with MELOE-12-21, MELOE-111-30 and MELOE-122-46 peptides, followed by CD4/IFN-γ double staining for the detection of Th1 responses, and by CD4/IL4 double staining for Th2 responses. Between brackets is indicated the mean % of cytokine producing CD4 T cells, in positive microcultures.\nas §1\nIn order to confirm the immunogenicity of each MELOE-1 regions in melanoma patients, we stimulated melanoma patients PBMC with the MELOE-1 whole protein, and tested the reactivity of stimulated lymphocytes towards the three most immunogenic regions: 2-21, 11-30, and 22-46. For this study, instead of challenging microcultures with the 18-37 peptide, that appeared poorly immunogenic, we extended the C-terminus region from 26-46 to 22-46, in order to also detect responses to our previously described HLA-DR11-restricted epitope (24-37). […] We tested the induction of CD4 specific responses from MELOE-1 stimulated PBMC of […] melanoma patients. We documented CD4 responses specific for the central region of MELOE-1 (11-30) for 7/9 patients, whereas responses specific for MELOE-12-21 and MELOE-122-46 were respectively detected in 4/9 and 5/9 patients (Table III). These responses were mainly Th1 responses (IFN-g production) while less frequent Th2 responses specific for the three regions of MELOE-1 were detected in 3/9 patients for MELOE-12-21, 2/9 patients for MELOE-111-30 and 5/9 patients for MELOE-122-46 (Table III). […] Concerning Th2 responses, much less frequent, the C-term region appeared to induce more frequently the growth of IL-4 producing CD4 T cells than the two other regions (FIG. 2A). […] In summary, stimulation of patient's PBMC with MELOE-1 induced Th1 responses specific for diverse epitopes located all along the protein sequence, and among the different regions, the central region (11-30) and the C-term region (22-46) appeared to be especially immunogenic in term of frequency of responses."}}}
{"sequence": "SCVGYPDEATSREQFLPSEG (SCVGYPDEATSREQFLPSEC) [MELOE-12-21]", "values": [{"measurement": "mean % of TNF-α producing CD4 T cells, in positive microcultures", "setting": "[1]; donor HD9", "value": "(1.4% ± 0.6)"}, {"measurement": "Microcultures containing MELOE-1 specific CD4+ T cells (TNF-α production)", "setting": "[1]; donor HD9 (DPβ1*0902/1501, DQβ1*0301, DRβ1*1104/1201)", "value": "9/96"}, {"measurement": "mean % of TNF-α producing CD4 T cells, in positive microcultures", "setting": "[1]; donor HD17", "value": "(3.2% ± 1.9)"}, {"measurement": "Microcultures containing MELOE-1 specific CD4+ T cells (TNF-α production)", "setting": "[1]; donor HD17 (DPβ1*0401/0301, DQβ1*0301/0603, DRβ1*1101/1301)", "value": "6/96"}, {"measurement": "mean % of TNF-α producing CD4 T cells, in positive microcultures", "setting": "[1]; donor HD22", "value": "(1%)"}, {"measurement": "Microcultures containing MELOE-1 specific CD4+ T cells (TNF-α production)", "setting": "[1]; donor HD22 (DPβ1*0401/1101, DQβ1*0202, DRβ1*0701)", "value": "1/96"}, {"measurement": "mean % of TNF-α producing CD4 T cells, in positive microcultures", "setting": "[1]; donor HD24", "value": "(1.3% ± 0.8)"}, {"measurement": "Microcultures containing MELOE-1 specific CD4+ T cells (TNF-α production)", "setting": "[1]; donor HD24 (DPβ1*0401/0101, DQβ1*0501/0602, DRβ1*0101/1501)", "value": "3/96"}, {"measurement": "mean % of TNF-α producing CD4 T cells, in positive microcultures", "setting": "[1]; donor HD25", "value": "(0.6% ± 0.1)"}, {"measurement": "Microcultures containing MELOE-1 specific CD4+ T cells (TNF-α production)", "setting": "[1]; donor HD25 (DPβ1*0401/0402, DQβ1*0201, DRβ1*0301)", "value": "3/96"}, {"measurement": "Microcultures containing MELOE-1 specific CD4+ T cells (TNF-α production)", "setting": "[1]; donor HD27 (DQβ1*501/0201, DRβ1*0101/0301)", "value": "0/96"}, {"measurement": "mean % of TNF-α producing CD4 T cells, in positive microcultures", "setting": "[1]; donor HD28", "value": "(2.7% ± 1.2)"}, {"measurement": "Microcultures containing MELOE-1 specific CD4+ T cells (TNF-α production)", "setting": "[1]; donor HD28 (DRβ1*0301)", "value": "30/48"}, {"measurement": "% of positive microcultures", "setting": "[1]; healthy donor HD28", "value": 62, "unit": "%"}, {"measurement": "donors in which CD4 responses against the region were detected", "setting": "[1]; seven healthy donors", "value": "6/7"}, {"measurement": "Th1 responses, % of tested microcultures", "setting": "[2]; 576 tested microcultures from melanoma patients, IFN-γ", "value": 3.3, "unit": "%"}, {"measurement": "patients in which Th2 responses were detected", "setting": "[2]; melanoma patients, IL4", "value": "3/9"}, {"measurement": "patients in which CD4 responses specific for the region were detected", "setting": "[2]; melanoma patients, Table III, Th1 (IFN-γ)", "value": "4/9"}, {"measurement": "mean % of cytokine producing CD4 T cells, in positive microcultures (IFN-γ)", "setting": "[2]; patient Pt ≠ 1", "value": "(0.7%)"}, {"measurement": "Th1 responses (IFN-γ positive microcultures)", "setting": "[2]; patient Pt ≠ 1", "value": "1/48"}, {"measurement": "Th2 responses (IL4 positive microcultures)", "setting": "[2]; patient Pt ≠ 1", "value": "0/48"}, {"measurement": "mean % of cytokine producing CD4 T cells, in positive microcultures (IFN-γ)", "setting": "[2]; patient Pt ≠ 2", "value": "(0.8% ± 0.2)"}, {"measurement": "Th1 responses (IFN-γ positive microcultures)", "setting": "[2]; patient Pt ≠ 2", "value": "4/96"}, {"measurement": "Th2 responses (IL4 positive microcultures)", "setting": "[2]; patient Pt ≠ 2", "value": "0/96"}, {"measurement": "Th1 responses (IFN-γ positive microcultures)", "setting": "[2]; patient Pt ≠ 3 (DPβ1*0201/2001, DQβ1*0303/0501, DRβ1*0101/0701)", "value": "10/96"}, {"measurement": "mean % of cytokine producing CD4 T cells, in positive microcultures (IFN-γ)", "setting": "[2]; patient Pt ≠ 3", "value": "(1.7% ± 2.9)"}, {"measurement": "Th2 responses (IL4 positive microcultures)", "setting": "[2]; patient Pt ≠ 3", "value": "0/96"}, {"measurement": "mean % of cytokine producing CD4 T cells, in positive microcultures (IL4)", "setting": "[2]; patient Pt ≠ 4", "value": "(0.7%)"}, {"measurement": "Th1 responses (IFN-γ positive microcultures)", "setting": "[2]; patient Pt ≠ 4", "value": "0/48"}, {"measurement": "Th2 responses (IL4 positive microcultures)", "setting": "[2]; patient Pt ≠ 4", "value": "1/48"}, {"measurement": "mean % of cytokine producing CD4 T cells, in positive microcultures (IFN-γ)", "setting": "[2]; patient Pt ≠ 5", "value": "(0.6%)"}, {"measurement": "mean % of cytokine producing CD4 T cells, in positive microcultures (IL4)", "setting": "[2]; patient Pt ≠ 5", "value": "(0.7% ± 0.1)"}, {"measurement": "Th1 responses (IFN-γ positive microcultures)", "setting": "[2]; patient Pt ≠ 5", "value": "1/48"}, {"measurement": "Th2 responses (IL4 positive microcultures)", "setting": "[2]; patient Pt ≠ 5", "value": "2/48"}, {"measurement": "Th1 responses (IFN-γ positive microcultures)", "setting": "[2]; patient Pt ≠ 6", "value": "0/48"}, {"measurement": "Th2 responses (IL4 positive microcultures)", "setting": "[2]; patient Pt ≠ 6", "value": "0/48"}, {"measurement": "Th1 responses (IFN-γ positive microcultures)", "setting": "[2]; patient Pt ≠ 7", "value": "0/48"}, {"measurement": "Th2 responses (IL4 positive microcultures)", "setting": "[2]; patient Pt ≠ 7", "value": "0/48"}, {"measurement": "Th1 responses (IFN-γ positive microcultures)", "setting": "[2]; patient Pt ≠ 8", "value": "0/48"}, {"measurement": "Th2 responses (IL4 positive microcultures)", "setting": "[2]; patient Pt ≠ 8", "value": "0/48"}, {"measurement": "mean % of cytokine producing CD4 T cells, in positive microcultures (IL4)", "setting": "[2]; patient Pt ≠ 9", "value": "(0.6%)"}, {"measurement": "Th1 responses (IFN-γ positive microcultures)", "setting": "[2]; patient Pt ≠ 9", "value": "0/48"}, {"measurement": "Th2 responses (IL4 positive microcultures)", "setting": "[2]; patient Pt ≠ 9", "value": "1/48"}]}
